Experimental data as given in PMC11557929, “Environment-sensitive turn-on fluorescent probe enables live cell imaging of myeloperoxidase activity during NETosis” (Communications Chemistry, 2024).

System: MPO activity in human polymorphonuclear neutrophils (hPMN)
Assay: Wash-free live-cell imaging of probes in hPMN during NETosis
Format: cell-based
Conditions: 100 nM PMA, probe near IC50, 3 h, 37 °C
Protocol: With probes 1-6 in hand, we opted for a cell-based screening strategy to find suitable probes to image MPO activity during NETosis (Fig. 1A). In this approach, we stimulated freshly isolated human polymorphonuclear neutrophils (hPMN) with PMA and incubated with probes 1-6 at concentrations near their IC50 for 3 h. […] Subsequently, probes that show a significant ‘’turn-on” fluorescence compared to unstimulated cells are selected and tested for colocalization with an anti-MPO antibody in fixed cells. With this cell-based strategy, potential suitable probes to image MPO activity during NETosis can be immediately identified. Therefore, live hPMN were incubated with PMA and probes 1-6 and imaged directly (Fig. 1B).
Colocalization analysis was performed with JaCoP[34].

Row | Compound | S/B (signal-to-background ratio)
1 | CN(C)S(=O)(=O)c1ccc(NCCn2c(=S)[nH]c(=O)c3[nH]cnc32)c2nonc12 [Probe 3] | 8.9
2 | CN(C)S(=O)(=O)c1ccc(NCCOCCn2c(=S)[nH]c(=O)c3[nH]cnc32)c2nonc12 [Probe 4] | 7.3
3 | CN(C)c1ccc2c3c(cccc13)C(=O)N(CCOCCn1c(=S)[nH]c(=O)c3[nH]cnc31)C2=O [Probe 2] | 11.7
4 | CN(C)c1ccc2c3c(cccc13)C(=O)N(CCn1c(=S)[nH]c(=O)c3[nH]cnc31)C2=O [Probe 1] | 16.7

Same assay, conditions: 100 nM PMA, probe near IC50, 3 h, 37 °C, whole images

Row | Compound | MFI (mean fluorescence intensity) [gray values]
5 | O=c1[nH]c(=S)n(CCNc2ccc([N+](=O)[O-])c3nonc23)c2nc[nH]c12 [Probe 5] | < 0.1
6 | O=c1[nH]c(=S)n(CCOCCNc2ccc([N+](=O)[O-])c3nonc23)c2nc[nH]c12 [Probe 6] | < 0.1
7 | CN(C)S(=O)(=O)c1ccc(NCCn2c(=S)[nH]c(=O)c3[nH]cnc32)c2nonc12 [Probe 3] | 1.5
8 | CN(C)S(=O)(=O)c1ccc(NCCOCCn2c(=S)[nH]c(=O)c3[nH]cnc32)c2nonc12 [Probe 4] | 1.8
9 | CN(C)c1ccc2c3c(cccc13)C(=O)N(CCOCCn1c(=S)[nH]c(=O)c3[nH]cnc31)C2=O [Probe 2] | 3.0
10 | CN(C)c1ccc2c3c(cccc13)C(=O)N(CCn1c(=S)[nH]c(=O)c3[nH]cnc31)C2=O [Probe 1] | 6.9

System: MPO activity in human polymorphonuclear neutrophils (hPMN)
Assay: as above
Format: cell-based
Conditions: 4 µM ionomycin, 1 µM probe, 3 h

Row | Compound | probe signal in ionomycin-stimulated cells
11 | CN(C)c1ccc2c3c(cccc13)C(=O)N(CCn1c(=S)[nH]c(=O)c3[nH]cnc31)C2=O [Probe 1] | not significantly different from unstimulated background levels

Biological target: T1, MPO (Homo sapiens, UniProt P05164)
T1 sequence (P05164 49-745): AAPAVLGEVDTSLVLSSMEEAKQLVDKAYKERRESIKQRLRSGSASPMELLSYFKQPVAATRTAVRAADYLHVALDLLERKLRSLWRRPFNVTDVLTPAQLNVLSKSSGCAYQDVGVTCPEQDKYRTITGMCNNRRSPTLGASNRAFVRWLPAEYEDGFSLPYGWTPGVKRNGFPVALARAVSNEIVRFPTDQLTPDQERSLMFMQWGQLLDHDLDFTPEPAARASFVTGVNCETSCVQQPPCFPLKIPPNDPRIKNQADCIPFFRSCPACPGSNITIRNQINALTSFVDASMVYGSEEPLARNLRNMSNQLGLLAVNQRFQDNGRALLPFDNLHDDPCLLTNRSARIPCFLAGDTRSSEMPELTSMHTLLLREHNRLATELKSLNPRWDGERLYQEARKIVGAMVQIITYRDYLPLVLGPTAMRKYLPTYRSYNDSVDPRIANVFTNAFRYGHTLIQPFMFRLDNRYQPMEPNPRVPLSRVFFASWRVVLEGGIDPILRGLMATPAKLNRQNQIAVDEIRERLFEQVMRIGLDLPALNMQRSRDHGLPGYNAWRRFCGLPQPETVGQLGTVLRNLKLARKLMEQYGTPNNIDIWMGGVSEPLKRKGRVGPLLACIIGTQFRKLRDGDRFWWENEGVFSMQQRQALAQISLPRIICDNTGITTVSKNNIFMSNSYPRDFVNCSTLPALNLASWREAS
Assay: Fluorescence turn-on of probe with purified MPO
Format: biochemical
Conditions: 1 µM probe, 15 µM MPO, 150 µM H2O2, PBS (pH 7.4)
Protocol: (§1) Furthermore, we confirmed the chemical stability of probe 1 in cell culture media with or without serum for 4 and 24 h at 37 °C (Supplementary Fig. 7).
(§2) To a stirring solution of the corresponding N-Boc aldehyde B1 or B2 (7.6 mmol) and AcOH (1.2 mmol) in dry CH3OH (30 mL) was added 4-amino-1H-imidazole-5-carboxamide (6.0 mmol). The reaction was stirred for 2.5 h under N2 before NaBH3CN (7.2 mmol) was added in one portion and the mixture was left stirring overnight under N 2. A solution of sat. aq. NaHCO3 was added and most of the CH3OH was removed in vacuo. The residue was extracted with EtOAc and the combined organic layers were dried over MgSO 4, filtered, and the crude product purified by flash silica gel column chromatog raphy (0-10% CH3OH/CH2Cl2) to give C1 or C2. […]
(§3) The solutions were incubated for 5 min and the fluorescence emission spectra was measured between 480 and 600 nm. […]
(§4) Probe 1 was diluted to 400 µM and incubated in CH3CN, RPMI 1640, or RPMI 1640 supplemented with 2% FCS for 0, 4, and 24 h at 37 °C under constant shaking. […] The supernatant was filtered and analyzed by HPLC. […]
(§5) Differentiation was assessed morphologically by fluorescent nuclear staining (Hoechst 33342) and by evaluation of CD11b expre ssion with a rat primary antibody directed against human CD11b (M1/70, Invitrogen, 1:400, 30 min, 4 °C) using a BD FACSVerse Flow Cytometer. Data were analyzed with FlowJo. […]

Row | Compound | fluorescence increase with MPO compared to probe alone, ABAH pre-treated MPO or BSA
12 | CN(C)c1ccc2c3c(cccc13)C(=O)N(CCn1c(=S)[nH]c(=O)c3[nH]cnc31)C2=O [Probe 1] | ~ 13 fold

System: not listed separately
Assay: Fluorescence excitation and emission spectra in solvents of different polarity
Format: physicochemical
Conditions: 10 μM, approximate values
Protocol: To validate the solvatochromic properties of the probes, we recorded the fluorescence excitation and emission spectra of probes 1-6 in a 10 μM solution in CH2Cl2, CH3CN, CH3OH, and PBS buffer (pH 7.4, Table 1, Supplementary Table 1). These solvents have different polarities thereby emulating the hydrophobic enzyme-probe binding site environment (Supplementary Figs. 1-6). […] This effect was less prominent for 3 and 4 with a ~ 110-fold fluorescence increase, and for 5 and 6 with a ~ 30-fold fluorescence increase.
Probes 1-6 were prepared into 10 mM DMSO stock solutions and diluted to 10 μM with CH2Cl2, CH3CN, CH3OH, or PBS (pH 7.4). The fluorescence excitation spectra of each probe was measured between 300 and 480 nm for probes 1-4 and 300 and 500 nm for probes 5 and 6. The fluorescence emission spectra of each probe was measured between 480 and 700 nm for probes 1-4 and 500 and 700 nm for probes 5 and 6.

Row | Compound | fluorescence increase in CH2Cl2 compared to PBS buffer (pH 7.4)
13 | O=c1[nH]c(=S)n(CCNc2ccc([N+](=O)[O-])c3nonc23)c2nc[nH]c12 [Probe 5] | ~ 30 fold
14 | O=c1[nH]c(=S)n(CCOCCNc2ccc([N+](=O)[O-])c3nonc23)c2nc[nH]c12 [Probe 6] | ~ 30 fold
15 | CN(C)S(=O)(=O)c1ccc(NCCn2c(=S)[nH]c(=O)c3[nH]cnc32)c2nonc12 [Probe 3] | ~ 110 fold
16 | CN(C)S(=O)(=O)c1ccc(NCCOCCn2c(=S)[nH]c(=O)c3[nH]cnc32)c2nonc12 [Probe 4] | ~ 110 fold
17 | CN(C)c1ccc2c3c(cccc13)C(=O)N(CCOCCn1c(=S)[nH]c(=O)c3[nH]cnc31)C2=O [Probe 2] | ~ 300 fold
18 | CN(C)c1ccc2c3c(cccc13)C(=O)N(CCn1c(=S)[nH]c(=O)c3[nH]cnc31)C2=O [Probe 1] | ~ 300 fold

Same assay, conditions: CH2Cl2, 10 μM

Row | Compound | λem [nm] | λex [nm]
19 | O=c1[nH]c(=S)n(CCNc2ccc([N+](=O)[O-])c3nonc23)c2nc[nH]c12 [Probe 5] | 522 | 452
20 | O=c1[nH]c(=S)n(CCOCCNc2ccc([N+](=O)[O-])c3nonc23)c2nc[nH]c12 [Probe 6] | 517 | 452
21 | CN(C)S(=O)(=O)c1ccc(NCCn2c(=S)[nH]c(=O)c3[nH]cnc32)c2nonc12 [Probe 3] | 532 | 417
22 | CN(C)S(=O)(=O)c1ccc(NCCOCCn2c(=S)[nH]c(=O)c3[nH]cnc32)c2nonc12 [Probe 4] | 535 | 420
23 | CN(C)c1ccc2c3c(cccc13)C(=O)N(CCOCCn1c(=S)[nH]c(=O)c3[nH]cnc31)C2=O [Probe 2] | 512 | 415
24 | CN(C)c1ccc2c3c(cccc13)C(=O)N(CCn1c(=S)[nH]c(=O)c3[nH]cnc31)C2=O [Probe 1] | 510 | 415

Same assay, conditions: PBS (pH 7.4), 10 μM

Row | Compound | λem [nm] | λex [nm]
25 | O=c1[nH]c(=S)n(CCNc2ccc([N+](=O)[O-])c3nonc23)c2nc[nH]c12 [Probe 5] | 558 | 473
26 | O=c1[nH]c(=S)n(CCOCCNc2ccc([N+](=O)[O-])c3nonc23)c2nc[nH]c12 [Probe 6] | 558 | 488
27 | CN(C)S(=O)(=O)c1ccc(NCCn2c(=S)[nH]c(=O)c3[nH]cnc32)c2nonc12 [Probe 3] | 600 | 435
28 | CN(C)S(=O)(=O)c1ccc(NCCOCCn2c(=S)[nH]c(=O)c3[nH]cnc32)c2nonc12 [Probe 4] | 600 | 435
29 | CN(C)c1ccc2c3c(cccc13)C(=O)N(CCOCCn1c(=S)[nH]c(=O)c3[nH]cnc31)C2=O [Probe 2] | 560 | 446
30 | CN(C)c1ccc2c3c(cccc13)C(=O)N(CCn1c(=S)[nH]c(=O)c3[nH]cnc31)C2=O [Probe 1] | 560 | 457

Same assay, conditions: supplementary figure legends

Row | Compound | fluorescence increase at λem in CH2Cl2 compared to PBS (pH 7.4) [x]
31 | O=c1[nH]c(=S)n(CCNc2ccc([N+](=O)[O-])c3nonc23)c2nc[nH]c12 [Probe 5] | 40

Biological target: T1, MPO
Assay: Amplex Red assay of MPO peroxidase activity
Format: biochemical
Conditions: not given
Text: Having obtained the fluorescent properties of probes 1-6, we determined their functional properties by the Amplex Red assay as previously reported (Table 1, Supplementary Figs. 1-6)[27]. In this assay, 10-acetyl-3,7-dihydroxyphenoxazine is oxidized by MPO in the presence of H2O2 to resorufin, a highly fluorescent compound with an fluorescence excitation and emission maxima of 571 and 585 nm, respectively. Fortunately, probes 1, 2, 4, 5, and 6 retained similar IC50 values as those previously reported for 2-thioxanthine-based inhibitors despite the presence of the environment-sensitive fluorophores[27],[33]. However, we noticed a slight negative trend in the IC50 of probes containing the shorter ethyl spacer. This effect was more evident in probe 3, which experienced a ~ 4-fold reduction in IC50 values compared to its counterpart probe 4.
MPO peroxidase activity and the determination of inhibitor potencies were performed as described before with minimal changes. In brief, to 78 uL of assay mixture (PBS (pH 7.4), 1 µM H2O2, and 20 µM Amplex Red) were added 2 μL of probe 1-6 in concentrations from 0 to 40 µM in DMSO (final DMSO concentration of 2%) and mixed for 1 min. The reactions were initiated by the addition of 20 μL 500 pM MPO (final MPO concentration of 100 pM) followed by mixing for 5 s. Fluorescent changes (RFU/s) were monitored at room temperature every 20 s for 30 min with excitation and emission filters set at 530 and 580 nm, respectively. Initial rates (V0) were determined using linear regression analysis of the first 600 s corresponding to the linear range of the DMSO control. To calculate IC50 values, V0 and probe concentration were fit to a dose-response curve with a standard Hill slope of -1 using nonlinear regression analysis. The kobs, kinact, and KI values for probe 1 were calculated exactly as described before.

Row | Compound | kinact/KI [M^−^1s^−^1]
32 | CN(C)c1ccc2c3c(cccc13)C(=O)N(CCn1c(=S)[nH]c(=O)c3[nH]cnc31)C2=O [Probe 1] | 4263

Same assay, conditions: Amplex Red assay, t = 30 min, 100 pM MPO, 1 µM H2O2

Row | Compound | IC50 [nM]
33 | O=c1[nH]c(=S)n(CCNc2ccc([N+](=O)[O-])c3nonc23)c2nc[nH]c12 [Probe 5] | 497 ± 86
34 | O=c1[nH]c(=S)n(CCOCCNc2ccc([N+](=O)[O-])c3nonc23)c2nc[nH]c12 [Probe 6] | 388 ± 35
35 | CN(C)S(=O)(=O)c1ccc(NCCn2c(=S)[nH]c(=O)c3[nH]cnc32)c2nonc12 [Probe 3] | 4570 ± 1830
36 | CN(C)S(=O)(=O)c1ccc(NCCOCCn2c(=S)[nH]c(=O)c3[nH]cnc32)c2nonc12 [Probe 4] | 1090 ± 151
37 | CN(C)c1ccc2c3c(cccc13)C(=O)N(CCOCCn1c(=S)[nH]c(=O)c3[nH]cnc31)C2=O [Probe 2] | 479 ± 17
38 | CN(C)c1ccc2c3c(cccc13)C(=O)N(CCn1c(=S)[nH]c(=O)c3[nH]cnc31)C2=O [Probe 1] | 854 ± 44

Same assay, conditions: from kobs vs probe concentration

Row | Compound | Ki [nM] | kinact [s^−^1]
39 | CN(C)c1ccc2c3c(cccc13)C(=O)N(CCn1c(=S)[nH]c(=O)c3[nH]cnc31)C2=O [Probe 1] | 1080 ± 73 | 0.0046 ± 0.0001

System: not listed separately
Assay: Chemical stability in cell culture media (HPLC)
Format: physicochemical
Conditions: cell culture media with or without serum, 4 and 24 h, 37 °C
Protocol: as §1, §2, §3, §4, §5

Row | Compound | chemical stability
40 | CN(C)c1ccc2c3c(cccc13)C(=O)N(CCn1c(=S)[nH]c(=O)c3[nH]cnc31)C2=O [Probe 1] | chemically stable
